Legend:
Format in all cases: in vivo
Setaria faberi (SETFA) [1] = test: Pre-emergence herbicidal glasshouse test on Setaria faberi; conditions: pre-emergence; 1000 g/h; evaluated after 13 days
Method: (§1) Seeds of a variety of test species are sown in standard soil in pots (Alopecurus myosuroides (ALOMY), Setaria faberi (SETFA), Echinochloa crus-galli (ECHCG), Solanum nigrum (SOLNI), Amaranthus retoflexus (AMARE), Ipomoea hederacea (IPOHE)). After cultivation for one day (pre-emergence) or after 8 days cultivation (post-emergence) under controlled conditions in a glasshouse (at 24/16° C., day/night; 14 hours light; 65% humidity), the plants are sprayed with an aqueous spray solution derived from the formulation of the technical active ingredient in acetone/water (50:50) solution containing 0.5% Tween 20 (polyoxyethelyene sorbitan monolaurate, CAS RN 9005-64-5). Compounds are applied at 1000 g/h. The test plants are then grown in a glasshouse under controlled conditions in a glasshouse (at 24/16° C., day/night; 14 hours light; 65% humidity) and watered twice daily. After 13 days for pre and post-emergence, the test is evaluated for the percentage herbicidal damage caused to the plant. The biological activities are shown in the following table on a five point scale (5=80-100% damage; 4=60-79% damage; 3=40-59% damage; 2=20-39% damage; 1=0-19% damage).

Solanum nigrum (SOLNI) [2] = test: Post-emergence herbicidal glasshouse test on Solanum nigrum; conditions: post-emergence; 1000 g/h; evaluated after 13 days
Method: as §1

Solanum nigrum (SOLNI) [3] = test: Pre-emergence herbicidal glasshouse test on Solanum nigrum; conditions: pre-emergence; 1000 g/h; evaluated after 13 days
Method: as §1

[4] = test system: Alopecurus myosuroides (ALOMY); test: Post-emergence herbicidal glasshouse test on Alopecurus myosuroides; conditions: post-emergence; 1000 g/h; evaluated after 13 days
Method: as §1

Setaria faberi (SETFA) [5] = test: Post-emergence herbicidal glasshouse test on Setaria faberi; conditions: post-emergence; 1000 g/h; evaluated after 13 days
Method: as §1

[6] = test system: Ipomoea hederacea (IPOHE); test: Pre-emergence herbicidal glasshouse test on Ipomoea hederacea; conditions: pre-emergence; 1000 g/h; evaluated after 13 days
Method: as §1

[7] = test system: Ipomoea hederacea (IPOHE); test: Post-emergence herbicidal glasshouse test on Ipomoea hederacea; conditions: post-emergence; 1000 g/h; evaluated after 13 days
Method: as §1

[8] = test system: Alopecurus myosuroides (ALOMY); test: Pre-emergence herbicidal glasshouse test on Alopecurus myosuroides; conditions: pre-emergence; 1000 g/h; evaluated after 13 days
Method: as §1

[9] = test system: Amaranthus retoflexus (AMARE); test: Pre-emergence herbicidal glasshouse test on Amaranthus retoflexus; conditions: pre-emergence; 1000 g/h; evaluated after 13 days
Method: as §1

[10] = test system: Echinochloa crus-galli (ECHCG); test: Post-emergence herbicidal glasshouse test on Echinochloa crus-galli; conditions: post-emergence; 1000 g/h; evaluated after 13 days
Method: as §1

[11] = test system: Echinochloa crus-galli (ECHCG); test: Pre-emergence herbicidal glasshouse test on Echinochloa crus-galli; conditions: pre-emergence; 1000 g/h; evaluated after 13 days
Method: as §1

[12] = test system: Amaranthus retoflexus (AMARE); test: Post-emergence herbicidal glasshouse test on Amaranthus retoflexus; conditions: post-emergence; 1000 g/h; evaluated after 13 days
Method: as §1

Structure (SMILES) | PRE Application SETFA herbicidal damage (five point scale) (Setaria faberi (SETFA) [1]) | POST Application SOLNI herbicidal damage (five point scale) (Solanum nigrum (SOLNI) [2]) | PRE Application SOLNI herbicidal damage (five point scale) (Solanum nigrum (SOLNI) [3]) | POST Application ALOMY herbicidal damage (five point scale) [4] | POST Application SETFA herbicidal damage (five point scale) (Setaria faberi (SETFA) [5]) | PRE Application IPOHE herbicidal damage (five point scale) [6] | POST Application IPOHE herbicidal damage (five point scale) [7] | PRE Application ALOMY herbicidal damage (five point scale) [8] | PRE Application AMARE herbicidal damage (five point scale) [9] | POST Application ECHCG herbicidal damage (five point scale) [10] | PRE Application ECHCG herbicidal damage (five point scale) [11] | POST Application AMARE herbicidal damage (five point scale) [12]
COc1ccc(Cn2ncc(-c3ccc(S(C)(=O)=O)c(C4=NOCC4)c3C)c(O)c2=O)cc1 [Compound 1.002] | 1 (1=0-19% damage) | 5 (5=80-100% damage) | 1 (1=0-19% damage) | 1 (1=0-19% damage) | 1 (1=0-19% damage) | 1 (1=0-19% damage) | 2 (2=20-39% damage) | 1 (1=0-19% damage) | 1 (1=0-19% damage) | 1 (1=0-19% damage) | 1 (1=0-19% damage) | 3 (3=40-59% damage)
CCC(C)n1ncc(-c2ccc(S(C)(=O)=O)c(C3=NOCC3)c2C)c(O)c1=O (stereo not drawn) [Compound 1.003] | 1 (1=0-19% damage) | 5 (5=80-100% damage) | 4 (4=60-79% damage) | 2 (2=20-39% damage) | 5 (5=80-100% damage) | 3 (3=40-59% damage) | 5 (5=80-100% damage) | 1 (1=0-19% damage) | 5 (5=80-100% damage) | 5 (5=80-100% damage) | 5 (5=80-100% damage) | 5 (5=80-100% damage)
Cc1c(-c2cnn(C(F)F)c(=O)c2O)ccc(S(C)(=O)=O)c1C1=NOCC1 [Compound 1.005] | 5 (5=80-100% damage) | 5 (5=80-100% damage) | 3 (3=40-59% damage) | 4 (4=60-79% damage) | 5 (5=80-100% damage) | 1 (1=0-19% damage) | 5 (5=80-100% damage) | 1 (1=0-19% damage) | 5 (5=80-100% damage) | 5 (5=80-100% damage) | 5 (5=80-100% damage) | 5 (5=80-100% damage)
O=c1c(O)c(-c2ccc(C(F)(F)F)cc2C(F)(F)F)cnn1C(F)F [Compound 1.006] | 1 (1=0-19% damage) | 5 (5=80-100% damage) | 3 (3=40-59% damage) | 1 (1=0-19% damage) | 1 (1=0-19% damage) | 3 (3=40-59% damage) | 5 (5=80-100% damage) | 2 (2=20-39% damage) | 5 (5=80-100% damage) | 1 (1=0-19% damage) | 2 (2=20-39% damage) | 5 (5=80-100% damage)
Cc1c(-c2cnn(C3CCCC3)c(=O)c2O)ccc(S(C)(=O)=O)c1C1=NOCC1 [Compound 1.007] | 4 (4=60-79% damage) | 5 (5=80-100% damage) | 2 (2=20-39% damage) | 4 (4=60-79% damage) | 4 (4=60-79% damage) | 2 (2=20-39% damage) | 4 (4=60-79% damage) | 1 (1=0-19% damage) | 3 (3=40-59% damage) | 5 (5=80-100% damage) | 4 (4=60-79% damage) | 5 (5=80-100% damage)
Cc1c(-c2cnn(C3CC3)c(=O)c2O)ccc(S(C)(=O)=O)c1C1=NOCC1 [Compound 1.008, 2-cyclopropyl-5-[3-(4,5-dihydroisoxazol-3-yl)-2-methyl-4-methylsulfonyl-phenyl]-4-hydroxy-pyridazin-3-one] | 4 (4=60-79% damage) | 5 (5=80-100% damage) | 5 (5=80-100% damage) | 5 (5=80-100% damage) | 5 (5=80-100% damage) | 3 (3=40-59% damage) | 5 (5=80-100% damage) | 4 (4=60-79% damage) | 4 (4=60-79% damage) | 5 (5=80-100% damage) | 5 (5=80-100% damage) | 5 (5=80-100% damage)
CCn1ncc(-c2c(Cl)ccc(Cl)c2Cl)c(O)c1=O [Compound 1.010] | 1 (1=0-19% damage) | 4 (4=60-79% damage) | 1 (1=0-19% damage) | 1 (1=0-19% damage) | 1 (1=0-19% damage) | 1 (1=0-19% damage) | 4 (4=60-79% damage) | 1 (1=0-19% damage) | 1 (1=0-19% damage) | 1 (1=0-19% damage) | 1 (1=0-19% damage) | 2 (2=20-39% damage)
CCn1ncc(-c2c(Cl)cccc2Cl)c(O)c1=O [Compound 1.011] | 1 (1=0-19% damage) | 4 (4=60-79% damage) | 1 (1=0-19% damage) | 2 (2=20-39% damage) | 2 (2=20-39% damage) | 1 (1=0-19% damage) | 2 (2=20-39% damage) | 1 (1=0-19% damage) | 1 (1=0-19% damage) | 2 (2=20-39% damage) | 1 (1=0-19% damage) | 4 (4=60-79% damage)

From US9693556B2, “Herbicidal pyridazinone derivatives” (SYNGENTA LIMITED, priority 2011, dated 2017)
